Measurements taken from patent publication US7326384B2, “Method and apparatus for detecting physicochemical changes emitted by biological sample” (Matsushita Electric Industrial Co., Ltd., priority 2001, dated 2008).

Tests used:
[1] = system: ion channel of a Lymnaea stagnail neuron; experiment: Extracellular recording of neuron before and after applying Carbachol, normal distribution of standard deviations (apparatus of FIG. 9); format: cell-based; conditions: after applying 50 μM Carbachol; 10 seconds data; FIG. 13
Source text: FIG. 9 is a conceptual diagram showing a configuration of an apparatus comprising the above-described device for detecting physicochemical changes emitted by a biological sample, which is configured to measure and extract the ion channel activity of the biological sample. The apparatus is the same as the apparatus of FIG. 8, except that the normal distribution approximation section 103, the average/half-width calculation section 106 and the activity categorization section 109 are employed in place of the average calculation section 105 and the activity calculation section 108. Communications between each section are indicated by a dashed line or a solid line in FIG. 9. […]
Before and after 50 μM-concentration Carbachol is applied to a Lymnaea stagnail neuron, signals were obtained from the measurement section (signal source) 101, and the standard deviation of the signals was calculated in a manner similar to that of Example 1. […]

[2] = system: ion channel of a Lymnaea stagnail neuron; experiment: Extracellular recording of neuron electrical signal at increasing Carbachol concentrations (apparatus of FIG. 8); format: cell-based; conditions: Carbachol 0, 0.1, 0.3, 1, 3, 10, 30 and 100 μM; 10 seconds time-series data; FIG. 12
Source text: FIG. 8 is a conceptual diagram showing a configuration of an apparatus comprising the above-described device for detecting physicochemical changes emitted by a biological sample, which is configured to measure and extract the ion channel activity of the biological sample. The apparatus comprises a measurement section (signal source) 101 comprising a device for detecting physicochemical changes emitted by the biological sample and measuring an action potential generated by a neuron, a unit standard deviation calculation section 102 for sampling a signal from the measurement section 101 and calculating the standard deviation of the signal, an average calculation section 105 for calculating the average of the obtained standard deviation, an activity calculation section 108 for calculating the ion channel activity of a cell from the average of the standard deviation output by the average calculation section 105, and a data displaying section 110 for displaying the calculated activity. Communications between each section are indicated by a dashed line or a solid line in FIG. 8. Note that the unit standard deviation calculation section 102, and the average calculation section 105, and the activity calculation section 108 may be representatively software programs which are recorded in a hard disk in a computer. The data displaying section 110 may be a CRT. […]

In the case of `C[N+](C)(C)CCOC(N)=O` [Carbachol], the “average of the normal distribution of standard deviation values every 5 miliseconds” value [1] is reported as 0.703 and the “ion channel activation (average of the standard deviation every 100 miliseconds)” value [2] is reported as “activated depending on the Carbachol concentration”.
